Assay results taken from publication PMC7435868, “Structure-Based Virtual Screening, Synthesis and Biological Evaluation of Potential FAK-FAT Domain Inhibitors for Treatment of Metastatic Cancer” (Molecules, 2020).

Key:
[1] = test system: MDA-MB-231; assay: Preliminary in vitro profiling of virtual hits; type: cell-based, human
Source text: Approximately 210,000 small molecules from the SPECS virtual library of compounds were imported, rendered, and minimised using a MMFF94x force field and run in a virtual screening simulations programme using Glide SP within Maestro software (Glide, version 9.5, Schrödinger; http://www.schrodinger.com). These compounds underwent four stages of filtration including prefiltration of the non-drug-like compounds in accordance with Lipinski’s rules and excluding chemically unstable and potentially toxic groups. This was followed by high throughput virtual screening (HTVS), standard precision virtual screening (SPVS) and extra precision virtual screening (XPVS). Each compound was positioned in the chosen pocket, which was made up of the area surrounding the three amino acids Asp 1036, Ser 910, and Lys 1032 within a 12 A° radius and scored for electrostatic and van der Waals interactions as implemented in the Schrodinger virtual screening package (version 9.5). […] These 25 hits underwent preliminary in vitro profiling in the metastatic triple negative breast cancer (TNBC) cell line (MDA-MB-231) for antiproliferative and antimigratory properties.

[2] = Microsomal metabolic stability
Method: Half-life (t1/2) values were measured at five time points.
Intrinsic clearance values (CLint) with standard error and t1⁄2 values were measured.
The final incubation volume was 50 μL. A minus cofactor control incubation was included for each compound tested where 0.1 M phosphate buffer pH 7.4 was added instead of NADPH (minus NADPH). Two control compounds were included with each species. All incubations were performed singularly for each test compound.
The reactions were stopped by transferring 20 μL of incubate to 60 μL methanol at the appropriate time points. The termination plates were centrifuged at 2500 rpm for 20 min at 4 °C to precipitate the protein.
Following protein precipitation, the sample supernatants were combined in cassettes of up to 4 compounds, the internal standard was added, and samples were analysed using Cyprotex generic LC-MS/MS conditions.
From a plot of ln peak area ratio (compound peak area/internal standard peak area) against time, the gradient of the line was determined.

[3] = human, pooled liver microsomes, pH 7.4

CC(C)(C)c1ccc(C(CN)c2ccc(Cl)cc2)cc1 (stereo not drawn) [Compound I]
Antiproliferative and antimigratory properties (preliminary profiling) [1]: low micromolar antiproliferative and antimigratory properties exceeding those of chloropyramine (C4)
Compound Remaining (% of 0 min), 0 min ([2]; human liver microsomes, 0 min): 100 % of 0 min
Compound Remaining (% of 0 min), 5 min ([2]; human liver microsomes, 5 min): 89.4 % of 0 min
Compound Remaining (% of 0 min), 15 min ([2]; human liver microsomes, 15 min): 92.3 % of 0 min
Compound Remaining (% of 0 min), 30 min ([2]; human liver microsomes, 30 min): 77.9 % of 0 min
Compound Remaining (% of 0 min), 45 min ([2]; human liver microsomes, 45 min): 81.3 % of 0 min
Compound Remaining (% of 0 min), Control ([2]; human liver microsomes, minus NADPH control, 45 min): 95.7 % of 0 min
half-life at 3 μM [2, 3]: 2.53 h
microsomal CLint at 3 μM [2, 3]: 9.1 µL/min/mg
